Legend:
[1] = pKcycl measured values of existing rhodamine derivatives (model structures); format: physicochemical; conditions: Table 1, model structures
Source text: A formula that calculates pKcycl from the free energy difference of the closed-ring form/ring-opened form by the analyzed cationic reaction was derived, assuming that acid-base equilibrium (lateral direction in the model) is reached quickly enough in the HM groups and amino groups. When the calculation results of close-1, open-1 were used as this free energy difference, it was understood that pKcycl of existing derivatives is accurately reproduced.

[2] = Fluorescence quantum yield; format: physicochemical; conditions: pH 3.0
[3] = system: SHIN3 cells disseminated intraperitoneally; assay: In vivo imaging using cancer peritoneal dissemination model mice; conditions: 100 μM, 300 μL intraperitoneally, five minutes after administration
Description: A quantity of 300 μL of 100 μM fluorescent probes 1 and 2 was injected intraperitoneally into model mice that had been injected intraperitoneally with SHIN3. After five minutes, the mice were placed under isoflurane anesthesia and laparotomized, and imaging was conducted by a Maestro imager.
Fluorescence spectrum imaging was conducted using a mouse model in which SHIN3 cells had been disseminated intraperitoneally. SHIN3-disseminated model mice were established by intraperitoneally injecting 3×10^6 SHIN3 cells suspended in 300 μL of PBS(−) into seven-week-old female nude mice. The experiment was conducted 29-30 days after injection. The probe solution (100 μM, 300 μL) dissolved in PBS(−) was injected intraperitoneally and allowed to stand for five minutes. The mice were then anesthetized by inhalation of isoflurane, and the skin of the abdomen was cut open. The intestine was removed from the incision, placed on a black rubber plate, and the mesentery was spread. It was applied dropwise to the spread mesentery. Fluorescence imaging was conducted using a Maestro™ Ex In-Vivo Imaging System (CRi Inc.). […] An image with the wavelength of fluorescence derived from the probe cut out or an image spectrally unmixed with autofluorescence is shown. […]

[4] = Absorption/fluorescence spectrum measurement of the fluorescent probes (pKcycl from absorption spectra); format: physicochemical; conditions: computed from absorption spectra (FIG. 2, FIG. 4)
Source text: The absorption spectra and fluorescence spectra of fluorescent probe 1 (gGlu-MHM4ThPCR550) and fluorescent probe 2 (gGlu-HM3ThPSiR600) synthesized in Example 1 were each measured.
FIGS. 2 and 3 respectively show the absorption spectra and fluorescence spectra of fluorescent probe 1 (gGlu-MHM4ThPCR550) and, as a comparison, MHM4ThPCR550 having no gGlu group. The pKcycl values computed from the results in FIG. 2 are shown below in Table 3.
The absorption spectra of HM3ThPSiR600 and HM3ThPAcSiR600 having no gGlu group are also shown as a comparison.

[5] = system: γ-Glutamyl transpeptidase (GGT); assay: Enzyme assay of fluorescent probes: fluorescence intensity change on GGT addition; format: biochemical; conditions: 1 μM probe, 10 mM NaPi buffer pH 7.4, 37° C., 1.1 U GGT; 585 nm (probe 1), 613 nm (probe 2)
Description: γ-Glutamyl transpeptidase (GGT) was added to fluorescent probes 1 and 2 of the present invention, and the changes in fluorescence intensity were measured.
Fluorescent probe 1 or 2 was dissolved to make 1 μM in 2.5 mL of 10 mM NaPi buffer (pH 7.4) containing 0.03% DMSO. The solution, kept at 37° C., was stirred using a magnetic stirrer, and the fluorescence intensity was measured. 1.1 U of GGT was added two minutes after the start of measurement in experiments other than the negative control. The fluorescence intensity of fluorescent probe 1 at 585 nm was measured for a total of 6000 seconds and the fluorescence intensity of probe 2 at 613 nm was measured for a total of 2400 seconds, and plotted as a function of time elapsed. The excitation wavelength was 550 nm for fluorescent probe 1 and 593 nm for fluorescent probe 2; the slit width was 2.4 nm, 5.0 nm for both excitation and fluorescence, and the photomultiplier tube voltage was 700 V.
As a result, the fluorescence intensity was confirmed to increase due to addition of GGT in the case of both fluorescent probes 1 and 2. The quantum yield of fluorescent probe 1 was 0.58 at pH 3.0. The quantum yield of fluorescent probe 2 was 0.26 at pH 3.0.

| pKcycl (Measured) [1] | Compound | quantum yield [2] | fluorescence imaging of tumors on the mesentery [3] | pKcycl (Measured) [4] | change in fluorescence intensity due to addition of GGT [5] |
| --- | --- | --- | --- | --- | --- |
| 8.1 | N=c1ccc2c(-c3ccccc3CO)c3ccc(N)cc3oc-2c1 [HMRG] | – | – | – | – |
| – | CC1OC2(c3ccc(N)cc3C(C)(C)c3cc(NC(=O)CC[C@H](N)C(=O)O)ccc32)c2ccsc21 (stereo partly drawn) [fluorescent probe 1] | 0.58 | small tumors having adequate contrast from the background could be observed | 6.3 | increase |
| – | C[Si]1(C)c2cc(N)ccc2C2(OCc3sccc32)c2ccc(NC(=O)CC[C@H](N)C(=O)O)cc21 (stereo partly drawn) [fluorescent probe 2] | 0.26 | small tumors having adequate contrast from the background could be observed | 5.4 | increase |
